Among the data in DBAASP are MIC values, retold here.

Values after ≈ are worked out from the molar mass of the structure shown.

Usually MIC stands for the least concentration at which growth counts as inhibited. Lower therefore signals greater potency.

Test systems include Pasteurella multocida; Staphylococcus aureus; Aspergillus fumigatus; Klebsiella pneumoniae; Bibersteinia trehalosi; Acinetobacter baumannii; Escherichia coli K-12.
Common to all, as to experiment: ≥ marks a high value that may be exact or a test limit, other limits are often not marked, values filed in µg/mL are converted to µM
The test system of assay [1] is Mannheimia haemolytica Serovar 6.
Assay [2] has as its system Pseudomonas aeruginosa PAO1.
Assay [3] has as its system Mannheimia haemolytica Serovar 1.
In assay [4] the test system is Mannheimia haemolytica Serovar 2.
Assay [5] deals with Salmonella enterica subsp. arizonae.
Assay [6] concerns Corynebacterium pseudotuberculosis ATCC 19410.
Assay [7] deals with Staphylococcus epidermidis ATCC 1435.
Assay [8] has as its system Pseudomonas aeruginosa ATCC 10662.
Assay [9] deals with Escherichia coli ATCC 25922.
For assay [10], the system named is Staphylococcus aureus ATCC 25923.
Assay [11] concerns Proteus vulgaris NBRC 3045.
Assay [12] relates to Pseudomonas aeruginosa NBRC 13275.
The subject of assay [13] is Escherichia coli NBRC 3972.
Assay [14] deals with Escherichia coli DH5alpha.
Assay [15] deals with Staphylococcus epidermidis.
The subject of assay [16] is Acinetobacter baumannii ATCC 19606.
Assay [17] has as its system Klebsiella pneumoniae ATCC 700603.
The test system of assay [18] is Staphylococcus aureus ATCC 43300.
Assay [19] concerns Candida albicans ATCC 90028.
The subject of assay [20] is Cryptococcus neoformans var. grubii H99.
Assay [21] deals with Pseudomonas aeruginosa ATCC 27853.
Assay [22] has as its system Staphylococcus aureus JE2.

Regarding `CC[C@H](C)[C@H](NC(=O)[C@H](Cc1cnc[nH]1)NC(=O)[C@@H](NC(=O)[C@@H](NC(=O)[C@H](CCCCN)NC(=O)[C@H](CCCN=C(N)N)NC(=O)[C@@H](NC(=O)[C@@H](NC(=O)[C@H](CCCN=C(N)N)NC(=O)[C@H](CCCN=C(N)N)NC(=O)[C@@H](N)CC(C)C)[C@@H](C)CC)[C@@H](C)CC)[C@@H](C)CC)[C@@H](C)CC)C(=O)N[C@H](C(=O)N[C@@H](CCCCN)C(=O)N[C@@H](CCCCN)C(=O)O)[C@@H](C)CC` [LRRIIRKIIHIIKK], the minimal inhibitory concentration (MIC) is 9.28 µM (≈ 16.7 µg/mL) in assay [1]; 1.83 µM (≈ 3.3 µg/mL) in assay [2]; 2.78 µM (≈ 5 µg/mL) in [3]; 5.55 µM (≈ 10 µg/mL) in the assay with Pasteurella multocida; 3.72 µM (≈ 6.7 µg/mL) in assay [4]; > 11.1 µM with Staphylococcus aureus. The MIC in [5] was 11.1 µM (≈ 20 µg/mL); in the assay with Aspergillus fumigatus, 18.5 µM (≈ 33.3 µg/mL); in the assay on Klebsiella pneumoniae, > 11.1 µM; in assay [6] it was 11.1 µM (≈ 20 µg/mL); against Bibersteinia trehalosi it was 11.1 µM (≈ 20 µg/mL).

In the case of `CC[C@H](C)[C@H](NC(=O)CNC(=O)[C@H](CCCN=C(N)N)NC(=O)[C@H](Cc1ccccc1)NC(=O)[C@@H](NC(=O)[C@H](Cc1cnc[nH]1)NC(=O)[C@H](Cc1cnc[nH]1)NC(=O)[C@H](Cc1ccccc1)NC(=O)[C@@H](N)Cc1ccccc1)[C@@H](C)CC)C(=O)N[C@H](C(=O)N[C@@H](Cc1cnc[nH]1)C(=O)N[C@H](C(=O)NCC(=O)N[C@@H](CCCCN)C(=O)N[C@H](C(=O)N[C@@H](CCCCN)C(=O)N[C@@H](Cc1cnc[nH]1)C(=O)N[C@@H](CCCN=C(N)N)C(=O)N[C@@H](CC(C)C)C(=O)N[C@H](C(=O)N[C@H](C(=O)NCC(N)=O)[C@@H](C)O)C(C)C)[C@@H](C)O)C(C)C)C(C)C` [FFHHIFRGIVHVGKTKHRLVTG], the MIC in assay [7] stood at 1.2 µM (≈ 3.1 µg/mL); with Staphylococcus aureus it was 2.4 µM (≈ 6.2 µg/mL); in assay [8], 9.66 µM (≈ 25 µg/mL); in [9], 1.2 µM (≈ 3.1 µg/mL); in assay [10] it was 2.4 µM (≈ 6.2 µg/mL); in the assay on Acinetobacter baumannii, 1.2 µM (≈ 3.1 µg/mL).

Regarding `CC(C)C[C@H](NC(=O)[C@H](CCCCN)NC(=O)CNC(=O)[C@H](CCCCN)NC(=O)[C@H](CC(C)C)NC(=O)[C@H](CCCCN)NC(=O)[C@H](CC(C)C)NC(=O)[C@H](CCCCN)NC(=O)[C@H](C)NC(=O)CNC(=O)[C@H](CC(C)C)NC(=O)[C@H](CCCCN)NC(=O)[C@H](CC(C)C)NC(=O)[C@H](CCCCN)NC(=O)[C@H](C)NC(=O)[C@H](CC(C)C)NC(=O)[C@H](CCCCN)NC(=O)[C@H](CCCCN)NC(=O)[C@@H](N)CCCCN)C(=O)NCC(=O)N[C@@H](C)C(N)=O` [KKKLAKLKLGAKLKLKGKLGA], the MIC against Staphylococcus aureus was 100 µM (≈ 223 µg/mL); in assay [11], ≥ 100 µM; in assay [12], 3.12 µM (≈ 6.98 µg/mL); in [13], 12.5 µM (≈ 27.9 µg/mL); in assay [14] it was 25 µM (≈ 55.8 µg/mL); in assay [15], 6.25 µM (≈ 14 µg/mL).

As for `CC[C@H](C)[C@H](NC(=O)[C@@H](NC(=O)[C@H](CO)NC(=O)[C@H](C)NC(=O)[C@@H](NC(=O)[C@H](CCCCN)NC(=O)[C@H](CCCN=C(N)N)NC(=O)[C@@H](NC(=O)[C@@H](NC(=O)[C@H](CC(=O)O)NC(=O)[C@H](Cc1ccccc1)NC(=O)[C@H](CC(C)C)NC(=O)CN)C(C)C)[C@@H](C)CC)C(C)C)C(C)C)C(=O)NCC(=O)NCC(=O)N[C@@H](CC(C)C)C(=O)O` [GLFDVIRKVASVIGGL], the MIC with Escherichia coli K-12 is 19.5 µM (≈ 32 µg/mL); in [16] it was 19.5 µM (≈ 32 µg/mL); in [17], > 19.5 µM; in assay [18], 9.73 µM (≈ 16 µg/mL); in assay [19], 19.5 µM (≈ 32 µg/mL); in assay [20], 9.73 µM (≈ 16 µg/mL). For the same compound, the MIC was > 19.5 µM in assay [9], > 19.5 µM in assay [21] and 9.73 µM (≈ 16 µg/mL) in assay [22].
